The text below walks through data of ChEMBL document CHEMBL1131645, “Synthesis and activity studies of N-[omega-N'-(adamant-1'-yl)aminoalkyl]- 2-(4'-dimethylaminophenyl)acetamides: in the search of selective inhibitors for the different molecular forms of acetylcholinesterase” (Bioorg Med Chem Lett, 1998).

Assay [1] has as its target T1, Acetylcholinesterase (Torpedo californica, UniProt P04058). Kind of assay: Compound was evaluated for competitive inhibition constant of acetylcholinesterase (AChE) from Torpedo californica. Further details: species or system Tetronarce californica.
The target in assay [2] is T2, Acetylcholinesterase (Bos taurus, UniProt P23795).
T2 sequence (P23795 whole entry): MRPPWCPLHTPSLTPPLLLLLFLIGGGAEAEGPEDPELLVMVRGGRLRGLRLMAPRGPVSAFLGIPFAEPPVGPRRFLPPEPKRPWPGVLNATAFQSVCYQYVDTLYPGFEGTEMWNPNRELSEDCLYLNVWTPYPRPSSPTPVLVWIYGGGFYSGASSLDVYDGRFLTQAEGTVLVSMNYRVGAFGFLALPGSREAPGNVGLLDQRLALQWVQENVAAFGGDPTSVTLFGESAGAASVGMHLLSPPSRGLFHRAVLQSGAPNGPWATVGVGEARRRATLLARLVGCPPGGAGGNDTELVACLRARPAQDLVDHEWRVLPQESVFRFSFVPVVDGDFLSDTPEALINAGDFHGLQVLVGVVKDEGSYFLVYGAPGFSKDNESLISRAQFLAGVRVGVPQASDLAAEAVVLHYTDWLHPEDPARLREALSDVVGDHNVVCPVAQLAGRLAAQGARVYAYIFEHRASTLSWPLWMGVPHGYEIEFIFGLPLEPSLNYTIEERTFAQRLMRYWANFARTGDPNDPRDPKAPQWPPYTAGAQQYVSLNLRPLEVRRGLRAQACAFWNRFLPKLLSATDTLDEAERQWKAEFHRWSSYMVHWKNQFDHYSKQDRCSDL
Kind of assay: Compound was evaluated for the inhibition of acetylcholinesterase (AChE) in bovine erythrocytes. The assay is classed as cell-based.

In assay [3] the target is T2, Acetylcholinesterase.
Description: Compound was evaluated for the inhibition of acetylcholinesterase (AChE) in bovine brain
Assay [4] concerns the target T3, Acetylcholinesterase (Electrophorus electricus, UniProt O42275).
Description: Compound was evaluated for the inhibition of acetylcholinesterase (AChE) in electric eel
Assay [5] deals with Acetylcholinesterase (Torpedo californica) (UniProt P04058). Kind of assay: Compound was evaluated for non-competitive inhibition constant of acetylcholinesterase (AChE) from Torpedo californica. As to conditions: Tetronarce californica.
The target of assay [6] is Acetylcholinesterase (Homo sapiens, UniProt P22303).
Description: Compound was evaluated for the inhibition of acetylcholinesterase (AChE) in human erythrocytes
The target in assay [7] is T1, Acetylcholinesterase. The assay can be described thus: Compound was evaluated for the inhibition of acetylcholinesterase in Torpedo californica. Further details: species or system Tetronarce californica.
For assay [8], the target named is T2, Acetylcholinesterase. This is another data set of the same source.
For assay [9], the target named is T3, Acetylcholinesterase. Kind of assay: Compound was evaluated for the inhibition of acetylcholinesterase in electric eel.
Assay [10] deals with T1, Acetylcholinesterase.
Description: Compound was evaluated for the inhibition of acetylcholinesterase (AChE) in Torpedo californica

Usually Ki stands for a dissociation constant, usually derived from enzyme kinetics or from competition with a known ligand. Low values mean tighter binding, high ones weaker binding. The term IC50 denotes the concentration at which inhibition is half-maximal. Read a high IC50 as a need for much substance.

Some results are limits rather than exact numbers.

T1 sequence (P04058 whole entry): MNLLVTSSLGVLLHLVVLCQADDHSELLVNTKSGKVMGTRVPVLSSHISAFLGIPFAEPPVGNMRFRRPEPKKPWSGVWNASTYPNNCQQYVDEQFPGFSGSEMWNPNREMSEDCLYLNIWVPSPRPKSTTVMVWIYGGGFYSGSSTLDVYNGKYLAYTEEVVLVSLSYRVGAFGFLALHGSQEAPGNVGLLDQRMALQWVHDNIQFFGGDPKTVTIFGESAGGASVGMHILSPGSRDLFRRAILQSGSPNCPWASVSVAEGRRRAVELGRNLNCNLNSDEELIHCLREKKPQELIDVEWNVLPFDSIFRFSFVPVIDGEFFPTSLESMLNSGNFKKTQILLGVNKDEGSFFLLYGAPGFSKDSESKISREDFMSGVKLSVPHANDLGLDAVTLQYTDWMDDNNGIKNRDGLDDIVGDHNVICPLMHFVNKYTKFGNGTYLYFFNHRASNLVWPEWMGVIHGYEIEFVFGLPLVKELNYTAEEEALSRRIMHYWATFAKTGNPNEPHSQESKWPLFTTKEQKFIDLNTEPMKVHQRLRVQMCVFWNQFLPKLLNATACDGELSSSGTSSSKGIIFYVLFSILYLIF
Acetylcholinesterase (Torpedo californica), sequence (P04058 22-564 limits assumed): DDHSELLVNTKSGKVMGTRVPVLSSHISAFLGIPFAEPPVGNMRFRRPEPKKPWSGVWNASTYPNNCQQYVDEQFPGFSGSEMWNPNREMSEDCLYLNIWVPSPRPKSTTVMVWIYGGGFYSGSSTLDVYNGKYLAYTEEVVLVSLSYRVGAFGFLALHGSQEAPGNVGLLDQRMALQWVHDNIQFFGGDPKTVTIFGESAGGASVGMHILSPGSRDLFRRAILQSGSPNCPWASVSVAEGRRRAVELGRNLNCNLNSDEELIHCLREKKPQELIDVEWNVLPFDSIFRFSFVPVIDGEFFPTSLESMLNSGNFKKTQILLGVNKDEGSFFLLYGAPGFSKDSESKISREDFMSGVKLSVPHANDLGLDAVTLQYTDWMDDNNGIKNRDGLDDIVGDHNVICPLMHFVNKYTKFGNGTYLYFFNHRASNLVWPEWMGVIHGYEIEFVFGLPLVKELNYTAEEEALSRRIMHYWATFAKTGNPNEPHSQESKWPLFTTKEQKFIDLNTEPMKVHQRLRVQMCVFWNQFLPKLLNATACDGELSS
T3 sequence (O42275 whole entry): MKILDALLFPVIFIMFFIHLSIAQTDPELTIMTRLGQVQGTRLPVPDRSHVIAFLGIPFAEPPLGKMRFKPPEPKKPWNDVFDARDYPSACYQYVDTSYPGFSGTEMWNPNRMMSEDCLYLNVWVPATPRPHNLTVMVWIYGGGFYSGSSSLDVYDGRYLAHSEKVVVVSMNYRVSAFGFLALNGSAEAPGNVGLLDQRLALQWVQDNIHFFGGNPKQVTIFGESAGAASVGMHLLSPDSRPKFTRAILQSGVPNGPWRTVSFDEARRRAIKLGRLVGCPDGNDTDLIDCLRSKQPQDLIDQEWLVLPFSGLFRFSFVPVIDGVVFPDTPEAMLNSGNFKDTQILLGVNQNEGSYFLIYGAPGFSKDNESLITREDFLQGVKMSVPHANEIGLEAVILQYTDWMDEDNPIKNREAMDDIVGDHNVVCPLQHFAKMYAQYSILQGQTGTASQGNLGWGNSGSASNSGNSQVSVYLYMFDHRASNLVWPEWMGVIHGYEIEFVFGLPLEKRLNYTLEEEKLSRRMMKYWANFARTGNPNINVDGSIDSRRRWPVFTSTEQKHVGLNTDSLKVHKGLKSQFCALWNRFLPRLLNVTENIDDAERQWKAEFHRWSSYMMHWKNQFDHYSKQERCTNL
Acetylcholinesterase (Homo sapiens, UniProt P22303), sequence (P22303 whole entry): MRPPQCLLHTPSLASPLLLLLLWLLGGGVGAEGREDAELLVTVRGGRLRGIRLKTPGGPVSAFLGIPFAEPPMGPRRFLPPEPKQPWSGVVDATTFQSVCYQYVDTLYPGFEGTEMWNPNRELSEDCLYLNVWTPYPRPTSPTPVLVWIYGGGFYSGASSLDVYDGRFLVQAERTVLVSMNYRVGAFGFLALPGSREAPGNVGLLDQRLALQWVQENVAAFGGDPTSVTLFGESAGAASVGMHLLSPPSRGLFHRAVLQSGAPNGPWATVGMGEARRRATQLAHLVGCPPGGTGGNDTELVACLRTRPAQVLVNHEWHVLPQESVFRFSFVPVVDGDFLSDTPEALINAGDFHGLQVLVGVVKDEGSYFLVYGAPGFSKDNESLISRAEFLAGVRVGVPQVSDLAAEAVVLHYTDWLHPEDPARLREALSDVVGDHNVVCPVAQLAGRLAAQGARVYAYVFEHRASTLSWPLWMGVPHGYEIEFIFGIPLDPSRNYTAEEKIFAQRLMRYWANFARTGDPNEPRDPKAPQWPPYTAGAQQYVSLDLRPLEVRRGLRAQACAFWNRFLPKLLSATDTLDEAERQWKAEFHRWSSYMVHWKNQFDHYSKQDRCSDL

As to `CN(C)c1ccc(CC(=O)NCCCCCCCCNC23CC4CC(CC(C4)C2)C3)cc1`, the Ki in assay [1] came out at 5.5 µM. Moreover, the IC50 is greater than 100 µM in assay [2]; greater than 100 µM in assay [3]; 28 µM in [4]; greater than 100 µM in assay [6]; 10 µM in assay [7]. In addition, the KI' in assay [5] was 10 µM.
`CN(C)c1ccc(CC(=O)NCCCCCCCCCCNC23CC4CC(CC(C4)C2)C3)cc1` had a Ki in [1] of 2.5 µM. In addition, the IC50 was 77 µM in assay [3]; greater than 100 µM in [6]; 95 µM in [8]; 14 µM in assay [9]; 5.3 µM in assay [7]. Besides, in [5], the KI' was 5.3 µM.
The compound `CN(C)c1ccc(CC(=O)NCCCCCCCNC23CC4CC(CC(C4)C2)C3)cc1` showed a Ki in assay [1] of 7 µM. Moreover, the KI' in assay [5] came out at 13 µM.
In the case of `CN(C)c1ccc(CC(=O)NCCCCCCCCCCCCNC23CC4CC(CC(C4)C2)C3)cc1`, the Ki in assay [1] worked out at 1.8 µM. In addition, the IC50 is 20 µM in assay [3]; 8.9 µM in assay [4]; 3.3 µM in [10]; greater than 100 µM in assay [6]; 19 µM in assay [8]. Moreover, the KI' in assay [5] stood at 4.1 µM.
In assay [1], `CN(C)c1ccc(CC(=O)NCCCCCCCCCNC23CC4CC(CC(C4)C2)C3)cc1` returned a Ki of 3.4 µM. Further, the KI' in [5] came out at 7 µM.
`CN(C)c1ccc(CC(=O)NCCCCCCCCCCCNC23CC4CC(CC(C4)C2)C3)cc1` displayed a Ki in assay [1] of 2.1 µM. For the same compound, the KI' in [5] stood at 5.2 µM.
